The source of these data is ChEMBL document CHEMBL1136086, “6-Alkyl, alkoxy, or alkylthio-substituted 3-(4-methanesulfonylphenyl)-4-phenylpyran-2-ones: a novel class of diarylheterocyclic selective cyclooxygenase-2 inhibitors” (Bioorg Med Chem Lett, 2003).

Experiment [1] has as its target T1, Prostaglandin G/H synthase 1 (Ovis aries) (UniProt P05979).
T1 sequence (whole entry): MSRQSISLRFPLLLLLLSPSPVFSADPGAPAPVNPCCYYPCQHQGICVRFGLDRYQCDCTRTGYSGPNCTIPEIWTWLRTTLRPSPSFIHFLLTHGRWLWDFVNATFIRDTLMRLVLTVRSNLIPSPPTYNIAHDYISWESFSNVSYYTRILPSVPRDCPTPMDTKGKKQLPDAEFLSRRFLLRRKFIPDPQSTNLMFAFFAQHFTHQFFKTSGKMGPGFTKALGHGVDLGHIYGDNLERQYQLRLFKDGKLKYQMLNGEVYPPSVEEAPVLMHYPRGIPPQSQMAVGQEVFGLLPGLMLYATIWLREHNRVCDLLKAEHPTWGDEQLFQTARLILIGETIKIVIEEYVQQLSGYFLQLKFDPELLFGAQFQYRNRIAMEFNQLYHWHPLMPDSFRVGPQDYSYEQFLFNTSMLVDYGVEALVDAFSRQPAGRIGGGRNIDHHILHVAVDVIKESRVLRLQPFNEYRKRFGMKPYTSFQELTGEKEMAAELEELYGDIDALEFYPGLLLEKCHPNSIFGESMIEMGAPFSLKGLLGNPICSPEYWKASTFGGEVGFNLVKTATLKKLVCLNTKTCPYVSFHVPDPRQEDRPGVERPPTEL
Kind of experiment: In vitro selectivity ratio of Prostaglandin G/H synthase 1 to Prostaglandin G/H synthase 2.

Experiment [2] has as its target T2, Prostaglandin G/H synthase 1 (Ovis aries, UniProt P05979).
T2 sequence (P05979 whole entry): T1 sequence (whole entry)
Description: In vitro inhibition against ovine Prostaglandin G/H synthase 1

Broadly, the IC50 is the concentration needed to halve the response being measured. `COc1cc(-c2ccccc2)c(-c2ccc(S(C)(=O)=O)cc2)c(=O)o1`: in experiment [1], the Ratio is less than 0.52. In addition, the IC50 in experiment [2] was 14.7 µM.

For the compound `CC(C)Oc1cc(-c2ccccc2)c(-c2ccc(S(C)(=O)=O)cc2)c(=O)o1`, the Ratio in experiment [1] was 2. The same compound showed an IC50 in experiment [2] of 4 µM.

As to `CSc1cc(-c2ccccc2)c(-c2ccc(S(C)(=O)=O)cc2)c(=O)o1`, the Ratio in experiment [1] came to 35.7. Further, the IC50 in experiment [2] is greater than 100 µM. In experiment [2], `CCOc1cc(-c2ccccc2)c(-c2ccc(S(C)(=O)=O)cc2)c(=O)o1` gave an IC50 of 281 µM. Compound `CC(C)c1cc(-c2ccccc2)c(-c2ccc(S(C)(=O)=O)cc2)c(=O)o1` had an IC50 in experiment [2] of 341 µM.

In turn, `Cc1cc(-c2ccccc2)c(-c2ccc(S(C)(=O)=O)cc2)c(=O)o1` returned an IC50 in experiment [2] of 615 µM. For `CCc1cc(-c2ccccc2)c(-c2ccc(S(C)(=O)=O)cc2)c(=O)o1`, the IC50 in experiment [2] came to 8 µM. Still for that read-out and setting: under `CC(C)Sc1cc(-c2ccccc2)c(-c2ccc(S(C)(=O)=O)cc2)c(=O)o1` stands greater than 100 µM.

On to `CCSc1cc(-c2ccccc2)c(-c2ccc(S(C)(=O)=O)cc2)c(=O)o1`, for which it took 386 µM to reach half-maximal inhibition in experiment [2] (IC50).
